The values that follow come from patent publication US20130324520A1, “RXRG MODULATORS FOR THE TREATMENT OF CANCER” (SLOAN-KETTERING INSTITUTE FOR CANCER RESEARCH, priority 2011, published 2013).

The test system of one assay is RB177. The assay can be described thus: Cell cycle synchronization and cell cycle analysis. The class given is cell-based. The method, then: (§1) After drug treatment, cells were collected for cell cycle analysis, RNA isolation, quantitative PCR, western blot, and immunofluorescence. For cell cycle analysis, retinoblastoma, neuroblastoma, lung, pancreatic, and colon cancer cells were collected and dissociated on days 3, 5, 7, 9, 11, and 16 after treatment. Cells were fixed by 70% cold ethanol alcohol while vortex, and put in −20° C. for storage. […] At 24 hours after treatment, 4 ug/ml Aphidicolin was added to cells with compounds for 24 hr. Aphidicolin was removed by centrifugation and PBS wash, and then added to new wells with fresh medium and compounds. Cells were collected and fixed before addition of aphidicolin, immediately after removal of aphidicolin, and every two hours thereafter until 16-18 hours.
(§2) The tubes with cells were taken out of the freezer and alcohol was removed by centrifugation. 150 ul of 0.06 mg/ml propidium iodide with 0.1% NF40 was added to the cells, and then 100 ul of 2 mg/ml of RNase was added to the cells. These were mixed well and incubated at 37° C. for 30 min. The cell ploidy according to DNA contents were measured in FACSCalibur with FL3-Width and FL3-Height as the parameter. Flowjo was used for analysis of the cell cycle changes.

The next assay has as its system A549. Nature of the assay: Cell cycle synchronization and cell cycle analysis. The class given is cell-based. The settings on record: treatment for 2 days. As for the experimental part:
as §1, §2

As for `C=C(c1ccc(C(=O)O)cc1)c1cc2c(cc1C)C(C)(C)CCC2(C)C` [Bexarotene], the “cell cycle after synchronization” value in the assay with RB177 (10 uM, 2 days) is “delayed S phase progression and delayed G2/M transition”. For the same compound, in the assay on RB177 (different dosages), the cell cycle result was “G2-M block and polyploidy”.

On to `CN1c2ccc([N+](=O)[O-])cc2N=C(c2ccc(C(=O)O)cc2)c2cc3c(cc21)C(C)(C)CCC3(C)C` [HX531], for which, in the assay on A549, the cell cycle result is “G1 arrest”.
